These results are taken from patent publication US20240301372A1, “TREATMENT FOR HSV-1 USING A MEGANUCLEASE” (priority 2021, published 2024).

The structures appear in SMILES notation.

The test system of this assay is HSV-1. In words: JQ1 reactivation (shedding) mouse model. The following applies: for shedding of HSV from mucosal surfaces: 50 mg/kg. It counts as in vivo, mice. As for the experimental part: FIG. 19. Schematic for JQ1 reactivation experiment. Latent infected mice were divided into three experimental groups to determine the effect of JQ1 on HSV reactivation. As illustrated in the figure, Group 1 and Group 2 were JQ1 groups that received a 50 mg/kg intraperitoneal injection of JQ1. Group 3 was the control group, i.e., no JQ1 injection. Group 1 mice received two injections, the first JQ1 injection at 0 hrs and the second JQ1 injection at 12 hrs. Group 2 mice received one injection at 0 hrs. Group 3 mice received one control injection at 0 hrs. To determine shedding from mucosal surfaces, as an indicator of HSV reactivation, mice were swabbed at 0 hrs (control) and this swab was compared to swabs taken at 24 hours, 48 hours, and 72 hours.
To begin, the mouse model for BET induced shedding was verified. In this model, latent infected mice were divided into three experimental groups to determine the effect of the BET inhibitor, JQ1, on HSV-1 reactivation. FIG. 19. As illustrated, Group 1 and Group 2 were JQ1 groups that received 50 mg/kg intraperitoneal injection of JQ1. Group 3 was the control group, i.e., no JQ1 injection. Group 1 mice received two injections, the first JQ1 injection at 0 hrs and the second JQ1 injection at 12 hrs. Group 2 mice received one injection at 0 hrs. Group 3 mice received one control injection at 0 hrs. To determine shedding from mucosal surfaces, as an indicator of HSV-1 reactivation, mice were swabbed at 0 hrs (control) and this swab was compared to swabs taken at 24 hours, 48 hours, and 72 hours. […] FIG. 20B. […] Compare the onset and duration of viral shedding in JQ1 double dose to JQ1 single dose.

For the molecule `Cc1sc2c(c1C)C(c1ccc(Cl)cc1)=N[C@@H](CC(=O)OC(C)(C)C)c1nnc(C)n1-2` [JQ1, tert-butyl (S)-2-(4-(4-chlorophenyl)-2,3,9-trimethyl-6H-thieno[3,2-f][1,2,4]triazolo[4,3-a][1,4]diazepin-6-yl)acetate], where the note is “single dose 50 mg/kg intraperitoneal”, the “time of peak shedding following JQ1 injection” value was determined as 2 days. Further, the “shedding of HSV from mucosal surfaces” value by setting is: (single dose 50 mg/kg intraperitoneal at 0 hrs, swabs 24, 48, 72 hours) “Shedding was detected”; (two doses 50 mg/kg intraperitoneal at 0 hrs and 12 hrs) “Shedding was also detected”.
